Assay results from patent publication EP0483928A1, “2-Saccharinylmethyl aryl carboxylates useful as proteolytic enzyme inhibitors and compositions and method of use” (STERLING WINTHROP INC., priority 1990, dated 1992).

Biological target: T1, human leukocyte elastase (HLE) (Homo sapiens, UniProt P08246)
T1 sequence (P08246 30-267): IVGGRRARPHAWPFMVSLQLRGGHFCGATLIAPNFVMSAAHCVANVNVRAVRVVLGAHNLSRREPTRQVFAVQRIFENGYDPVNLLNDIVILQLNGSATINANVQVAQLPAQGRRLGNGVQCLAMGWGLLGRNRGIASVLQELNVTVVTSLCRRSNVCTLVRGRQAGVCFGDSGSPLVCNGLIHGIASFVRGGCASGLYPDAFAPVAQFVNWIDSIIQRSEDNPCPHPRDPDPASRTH
Experiment: Inhibition of human leukocyte elastase: rate of inactivation kon and inhibition constant Ki* (koff/kon)
Assay type: biochemical
Conditions: Ki* = koff/kon, calculated from measured koff and kon; not a truly reversible Ki; read-out: K*i
Procedure: Thus, instead of measuring a Ki, a Ki* is calculated which is defined as the ratio of the koff/kon, the rate of reactivation of the enzyme to the rate of inactivation of the enzyme. The values of koff and kon are measured and Ki* is then calculated.
The rate of inactivation, kon, of enzymatic activity was determined for the compounds tested by measuring the enzyme activity of an aliquot of the respective enzyme as a function of time after addition of the test compound. […] The rate of inactivation is then equal to [formula] where [I] is the concentration of the inhibiting compound.
The reactivation constant, koff, is similarly determined, and the inhibition constant, Ki*, is then calculated as Ki * = koff /kon [formula]

First: COc1cc(C(C)C)c2c(c1OC)S(=O)(=O)N(COC(=O)c1c(Cl)ccc(S(=O)(=O)N3CCN(C)CC3)c1Cl)C2=O [Example 1BH]
Second: COc1cc(C(C)C)c2c(c1OC)S(=O)(=O)N(COC(=O)c1c(Cl)cccc1Cl)C2=O [Example 1BF]
The Ki of the first is 3.3-fold lower: 0.6 nM for the first, 2 nM for the second. The first binds more tightly here.

First: CC(C)c1cccc2c1C(=O)N(COC(=O)c1cccc3ccccc13)S2(=O)=O [Example 1I]
Second: CN(C)c1cccc2c1C(=O)N(COC(=O)c1c(Cl)cccc1Cl)S2(=O)=O [Example 11, 4-dimethylamino-2-saccharinylmethyl 2,6-dichlorobenzoate]
The Ki of the first is 2.4-fold higher: 0.48 nM for the first, 0.2 nM for the second. The second binds more tightly here.

First: CC(C)C1CCCC2=C1C(=O)N(COC(=O)c1c(Cl)ccc(S(=O)(=O)N(C)CCN(C)C)c1Cl)S2(=O)=O (stereo not drawn) [Example 9E, 4-isopropyl-4,5,6,7-tetrahydro-2-saccharinylmethyl 2,6-dichloro-3-[[2-(N,N-dimethylamino)ethyl]-N-methylaminosulfonyl]benzoate hydrochoride]
Second: COc1cc(C(C)C)c2c(c1)S(=O)(=O)N(COC(=O)c1c(C)cccc1C)C2=O [Example 1BM]
The Ki of the first is 25-fold higher: 2 nM for the first, 0.08 nM for the second. The second binds more tightly here.
